Reference: EP3996708B1, “PHARMACEUTICAL COMPOSITIONS COMPRISING INHIBITORS OF OPA1 FOR USE IN THE TREATMENT OF CANCER” (priority 2019, dated 2021)
Like-named read-outs stand apart in the source and are kept apart here.

What was measured:
rOPA1 = target: T1, rOPA1 (Mus musculus, UniProt P58281); assay: Malachite green (MG) GTPase activity assay of rOPA1, assay set-up and high-throughput screening (384-well); format: biochemical; settings: for inhibition of rOPA1 GTP hydrolysis: comparison of candidates for positive control; for rOPA1 activity: increasing concentrations of the non-hydrolysable GTP analogues
T1 construct: His-tag (C); made in house; host or cells: E. coli
T1 sequence (P58281 168-960 limits assumed): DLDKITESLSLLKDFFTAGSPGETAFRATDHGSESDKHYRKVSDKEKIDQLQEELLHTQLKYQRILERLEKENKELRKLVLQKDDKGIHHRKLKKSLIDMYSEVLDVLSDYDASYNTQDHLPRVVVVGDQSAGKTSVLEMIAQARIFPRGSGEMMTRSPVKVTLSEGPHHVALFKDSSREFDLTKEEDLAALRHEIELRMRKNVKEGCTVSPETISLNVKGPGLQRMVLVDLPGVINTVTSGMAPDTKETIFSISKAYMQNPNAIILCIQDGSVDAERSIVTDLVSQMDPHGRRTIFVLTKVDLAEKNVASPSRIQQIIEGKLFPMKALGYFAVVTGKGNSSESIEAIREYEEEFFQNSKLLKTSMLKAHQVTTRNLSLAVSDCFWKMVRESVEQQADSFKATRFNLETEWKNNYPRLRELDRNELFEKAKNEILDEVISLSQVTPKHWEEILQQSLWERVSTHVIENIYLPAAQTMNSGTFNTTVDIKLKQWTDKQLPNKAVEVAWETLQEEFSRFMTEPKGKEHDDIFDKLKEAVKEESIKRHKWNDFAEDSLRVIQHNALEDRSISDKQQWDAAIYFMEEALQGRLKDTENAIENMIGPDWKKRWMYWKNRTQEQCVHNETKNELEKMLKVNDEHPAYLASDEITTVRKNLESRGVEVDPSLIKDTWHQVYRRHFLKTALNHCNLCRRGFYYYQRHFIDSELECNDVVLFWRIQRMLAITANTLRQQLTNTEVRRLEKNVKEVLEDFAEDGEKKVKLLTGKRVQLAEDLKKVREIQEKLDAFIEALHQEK

[1] = Solubility in water, DMSO and cell culture medium; format: physicochemical
From the text: (§1) Drug Discov Today 17, 419-424).

[2] = system: Mouse embryonic fibroblasts (MEFs); assay: Cell permeability (280 nm absorbance of extracellular medium; SPE and HPLC-UV of cell lysates); format: in vitro ADME
From the text: as §1

MDA-MB-231 cells [3] = assay: Scratch wound migration assay; format: cell-based, human; settings: cells transfected with OPA1 siRNA, 20 µM MYLS22
Method: Scratch wound migration assay: HUVEC and MDA cells were cultured in 48-well plates in 800 µl of EGM2 for 48 hours and were wounded with the head of 200 µl tips.

MEFs [4] = assay: Cytochrome c immunolocalization after H2O2
From the text: For cytochrome c and TOM20 detection, green and red channel images respectively were acquired simultaneously using two separate color channels on the detector assembly of a Zeiss LSM 700 confocal microscope.

WT MEFs mitochondria = assay: Live imaging of mitochondrial network (mtYFP); settings: 50 µM or 100 µM, 24h
Method: After 24 h, the coverslips were incubated in Hank's Balanced Salt Solution (HBSS) supplemented with 10 mM Hepes and placed on the stage of the microscope. […] Stacks of 25 images separated by 0.3 µm along the z axis were acquired. Convolution and z-stack project were performed using a plug-in of the ImageJ software (National Institutes of Health). Mitochondrial length was quantified with Image J by measuring the average mitochondrial major axis length of 10 mitochondria per cell in 20 cells per sample.

[5] = system: mitochondria purified from mouse liver; assay: Membrane potential of isolated mitochondria by Rhodamine 123; settings: complex I (glutamate/malate) or complex II (succinate) substrates; concentrations well above rOPA1 IC50
Method: (§2) Quantitative determination of cytochrome c in the pellet and the supernatant fractions was determined using the rat/mouse specific ELISA Cytochrome c Immunoassay (R&D Systems). Respiratory chain dysfunctions and membrane potential were assayed by monitoring the release of rhodamine123 from pre-stained mitochondria.

MEFs [6] = assay: Mitochondrial membrane potential by TMRM imaging in response to oligomycin; settings: range of concentrations well above rOPA1 IC50
[7] = system: recombinant Dynamin-1 lacking the proline rich domain (PRD) (Dyn1ΔPRD); assay: Malachite green GTPase activity assay of recombinant Dynamin-1 (specificity); settings: even at concentrations four times above the calculated IC50 for OPA1
Method: The assay was performed in 96 well-plates in a final volume of 190 µl/well. To start the hydrolysis reaction, 10 µl of 0.5 µM of rOPA1 in 40 mM Hepes/KOH pH 7.4 was mixed with 10 µl of 500 µM GTP and 10 mM MgCl2 and incubated for 2 hours at 37 °C. The reaction was then halted by adding to each well 5 µl of 500 µM EDTA, which chelates the Mg2+ required for GTP hydrolysis. To measure the phosphate content, 150 µL of the Malachite Green-ammonium molybdate solution (1 mM Malachite Green, 10 mM ammonium molybdate in 1N HCl) was added at each well. After 15 minutes incubation at 25 °C, was measured the absorbance at 595 nm using a microplate reader. Phosphate concentration of each sample was calculated from a standard curve ranging from 1 to 100 µM Pi generated for each experiment. […] As positive control of OPA1 activity inhibition, 5 µl of 500 µM EDTA were added before incubation with GTP to prevent the hydrolysis reaction. Samples with only buffer and 500 µM GTP were used as blank controls.

WT MEFs = assay: Analysis of cell death by Annexin V / propidium iodide flow cytometry in MEFs; settings: concentrations up to 100 µM, 24h
Method: (§3) Analysis of cell death: 1 × 10^5 MEFs were grown in 12-well plates. […] After different timepoints cells were stained with Annexin-V-FICT and propidium iodide (PI), according to manufacturer's protocol (eBioscienceTM). Cell death was measured by flow cytometry (FACSCalibur) as the percentage of Annexin-V and PI positive events.

MDA-MB-231 cells [8] = assay: Analysis of cell death by Annexin V / propidium iodide flow cytometry in MDA-MB-231 cells
Method: After 24h, viability was measured cytofluorimetrically as the percentage of Annexin V and propidium iodide negative cells. […] At the indicated timepoints, cells viability was measured cytofluorimetrically as the percentage of Annexin V and propidium iodide negative cells. Data represents average ± SEM of three independent experiments.
as §3

[9] = system: purified mouse liver mitochondria; assay: In vitro cytochrome c release from isolated mitochondria in response to cBID (ELISA, immunoblot)
Method: as §2

Nc1nc2c(ncn2[C@@H]2O[C@H](COP(=O)(O)OP(=O)(O)OP(O)(O)=S)[C@@H](O)[C@H]2O)c(=O)[nH]1 [GTPγS]
inhibition of rOPA1 GTP hydrolysis (rOPA1): residual rOPA1 activity | rOPA1 activity (rOPA1): inhibited

Nc1nc2c(ncn2[C@@H]2O[C@H](COP(=O)(O)OP(=O)(O)NP(=O)(O)O)[C@@H](O)[C@H]2O)c(=O)[nH]1 [GMPPNP]
rOPA1 activity (rOPA1): inhibited

Cc1nn(-c2ccccc2)c2sc(C(=O)Nc3c(C)n(C)n(-c4ccccc4)c3=O)cc12 [MYLS22, N-(1,5-dimethyl-3-oxo-2-phenyl-2,3-dihydro-1H-pyrazol-4-YL) 3-methyl-1-phenyl-1H-thieno[2,3-c]pyrazole-5-carboxamide]
aqueous solubility [1]: low aqueous solubility | solubility ([1]; DMSO, organic solvent or mixture, read-out: soluble in DMSO): ≤ 1000 µM | solubility ([1]; cell culture medium, plasma or biological fluid, read-out: soluble in cell culture medium): ≤ 150 µM | cell permeability ([2]; HPLC-UV at 280 nm on cell lysates after SPE): can enter mammalian cells | concentration of MYLS22 in the extracellular medium ([2]; MEFs in HBSS, 280 nm absorption over time): decreased with incubation time | effect on cell migration combined with OPA1 silencing (MDA-MB-231 cells [3]): not additive | time to maximal release of cytochrome c after apoptosis induction (MEFs [4]; 50µM MYLS22, 1 mM H2O2): 30 min | release of cytochrome c (MEFs [4]; 50µM MYLS22, H2O2, versus 25 µM MYLS22 or DMSO): significantly more rapidly | mitochondrial morphology (WT MEFs mitochondria): dose dependent mitochondrial fragmentation and decrease in mitochondrial length | uptake of the potentiometric dye Rhodamine 123 [5]: did not reduce uptake | mitochondrial membrane potential (TMRM fluorescence) (MEFs [6]): membrane potential was stable | Dyn1ΔPRD inhibition [7]: did not | cell death (WT MEFs): did not cause MEFs death | cell death after an apoptotic stimulus (MDA-MB-231 cells [8]; 50 or 100 µM MYLS22 and 1 mM H2O2): enhances MDA-MB-231 cells death | cell death (MDA-MB-231 cells [8]; indicated concentrations, 24h): does not induce cell death in MDA-MB-231 cells | increase of the amount of cytochrome c release ([9]; 25µM MYLS22, cBID): 1.7 fold | amount of cytochrome c release ([9]; 125 µM MYLS22, cBID): more than doubled

Nc1nc2c(ncn2[C@@H]2O[C@H](COP(=O)(O)OP(=O)(O)O)[C@@H](O)[C@H]2O)c(=O)[nH]1 [GDP]
rOPA1 GTPase activity (rOPA1; 500 µM GDP): not influenced

O=C(O)CN(CCN(CC(=O)O)CC(=O)O)CC(=O)O [EDTA, ethylenediaminetetraacetic acid]
inhibition of rOPA1 GTP hydrolysis (rOPA1): stably and fully inhibited GTP hydrolysis
